Measurements from patent publication US11219221B2 (FarmHannong Co., Ltd., priority 2017, dated 2022).

Assays:
Format in all cases: cell-based
Settings in all cases: LB agar, 37° C., light, 16 to 20 hours
[1] = test system: CyPPO16 wild type (SEQ ID NO: 1) in PPO-deficient E. coli BT3(ΔPPO)
Method: (§1) The mutated CyPPO gene obtained from the Example 2 was transformed to BT3 (ΔPPO) strain which is deficient of PPO activity and cultured in LB media with PPO-inhibiting herbicide, thereby examining whether growth of transformed BT3 was not inhibited.
(§2) BT3 competent cells were transformed with the pET303-CyPPO16 and pET303-CyPPO17 plasmids and those with a mutation(s) constructed in Example 2 respectively, and were cultured in LB agar media containing carbenicillin (Gold Biotechnology, Co., Ltd.).
(§3) Single colony of E. coli transformed with each CyPPO gene was cultured in 3 ml of LB broth containing carbenicillin overnight, and then was subcultured until absorbance (0D600) reached 0.5 to 1. Then, it was diluted with LB broth to OD600=0.5. Again, the diluted solution was serially diluted 4 times by a factor of one tenth.
(§4) The LB agar media (LB 25 g/l, Bacto agar 15 g/l) containing carbenicillin (100 μg/ml) and 0 to 4,000 μM of various herbicides dissolved in DMSO was prepared. Next, 10 μl of each diluted solution was dropped on the plate and cultured at 37° C. under light (Tables 7 and 9, FIGS. 2 to 6, and 18 to 22) or dark (Tables 8 and 10, FIGS. 7 to 17, and 23 to 33) for 16 to 20 hours. Then, extent of tolerance was evaluated.
(§5) The extent of herbicide tolerance of the mutated genes was evaluated by comparing that of mutated genes with that of wild type. The relative tolerance was represented with “+” as a factor of 10 times. Evaluation result was listed in Tables 7 to10 and FIGS. 2 to 33:
(§6) In Tables 7 to 10, tolerance level was presented as of tolerance of wild type and of variants equivalent to that of wild type, and was done as ‘+’ per each 10 fold resistance until ‘+++++’ as maximal resistance. (Tolerance level was evaluated by relative growth level of variants to that of wild type in the media containing highest concentration of herbicide; ‘+’=1-9 fold higher tolerance, ‘++’=10-99 fold higher tolerance, ‘+++’=100-999 fold higher tolerance, ‘++++’=1,000-9,999 fold higher tolerance, ‘+++++’=more than 10,000 fold higher tolerance)

[2] = test system: CyPPO17 wild type (SEQ ID NO: 3) in PPO-deficient E. coli BT3(ΔPPO)
Method: as §1, §2, §3, §4, §5, §6

[3] = test system: CyPPO16 (SEQ ID NO: 1) variant F360I in PPO-deficient E. coli BT3(ΔPPO)
Method: as §1, §2, §3, §4
(§7) The extent of herbicide tolerance of the mutated genes was evaluated by comparing that of mutated genes with that of wild type. The relative tolerance was represented with “+” as a factor of 10 times.
(§8) In Tables 7 to 10, tolerance level was presented as of tolerance of wild type and of variants equivalent to that of wild type, and was done as ‘+’ per each 10 fold resistance until ‘+++++’ as maximal resistance.

[4] = test system: CyPPO17 (SEQ ID NO: 3) variant A166L in PPO-deficient E. coli BT3(ΔPPO)
Method: as §1, §2, §3, §4, §7, §8

[5] = test system: CyPPO16 (SEQ ID NO: 1) variant F360L in PPO-deficient E. coli BT3(ΔPPO)
Method: as §1, §2, §3, §4, §7, §8

[6] = test system: CyPPO17 (SEQ ID NO: 3) variant F359L in PPO-deficient E. coli BT3(ΔPPO)
Method: as §1, §2, §3, §4, §7, §8

[7] = test system: CyPPO16 (SEQ ID NO: 1) variant A162C in PPO-deficient E. coli BT3(ΔPPO)
Method: as §1, §2, §3, §4, §7, §8

[8] = test system: CyPPO17 (SEQ ID NO: 3) variant F359I in PPO-deficient E. coli BT3(ΔPPO)
Method: as §1, §2, §3, §4, §7, §8

[9] = test system: CyPPO16 (SEQ ID NO: 1) variant A162L in PPO-deficient E. coli BT3(ΔPPO)
Method: as §1, §2, §3, §4, §7, §8

[10] = test system: CyPPO17 (SEQ ID NO: 3) variant F359M in PPO-deficient E. coli BT3(ΔPPO)
Method: as §1, §2, §3, §4, §7, §8

[11] = test system: CyPPO16 (SEQ ID NO: 1) variant F360C in PPO-deficient E. coli BT3(ΔPPO)
Method: as §1, §2, §3, §4, §7, §8

[12] = test system: CyPPO16 (SEQ ID NO: 1) variant F360M in PPO-deficient E. coli BT3(ΔPPO)
Method: as §1, §2, §3, §4, §7, §8

[13] = test system: CyPPO16 (SEQ ID NO: 1) variant F360V in PPO-deficient E. coli BT3(ΔPPO)
Method: as §1, §2, §3, §4, §7, §8

[14] = test system: CyPPO17 (SEQ ID NO: 3) variant F359C in PPO-deficient E. coli BT3(ΔPPO)
Method: as §1, §2, §3, §4, §7, §8

[15] = test system: CyPPO17 (SEQ ID NO: 3) variant A166C in PPO-deficient E. coli BT3(ΔPPO)
Method: as §1, §2, §3, §4, §7, §8

[16] = test system: CyPPO16 (SEQ ID NO: 1) variant V305M in PPO-deficient E. coli BT3(ΔPPO)
Method: as §1, §2, §3, §4, §7, §8

[17] = test system: CyPPO17 (SEQ ID NO: 3) variant V304M in PPO-deficient E. coli BT3(ΔPPO)
Method: as §1, §2, §3, §4, §7, §8

Compound | Herbicide tolerance (relative to wild type) [1] | Herbicide tolerance (relative to wild type) [2] | Herbicide tolerance (relative to wild type) [3] | Herbicide tolerance (relative to wild type) [4] | Herbicide tolerance (relative to wild type) [5] | Herbicide tolerance (relative to wild type) [6] | Herbicide tolerance (relative to wild type) [7] | Herbicide tolerance (relative to wild type) [8] | Herbicide tolerance (relative to wild type) [9] | Herbicide tolerance (relative to wild type) [10] | Herbicide tolerance (relative to wild type) [11] | Herbicide tolerance (relative to wild type) [12] | Herbicide tolerance (relative to wild type) [13] | Herbicide tolerance (relative to wild type) [14] | Herbicide tolerance (relative to wild type) [15] | Herbicide tolerance (relative to wild type) [16] | Herbicide tolerance (relative to wild type) [17]
CCOC(=O)COc1cc(-c2nn(C)c(OC(F)F)c2Cl)c(F)cc1Cl [pyraflufen-ethyl] | − | − | ++ (10-99 fold higher tolerance) | ++ (10-99 fold higher tolerance) | ++ (10-99 fold higher tolerance) | ++ (10-99 fold higher tolerance) | +++ (100-999 fold higher tolerance) | ++ (10-99 fold higher tolerance) | +++ (100-999 fold higher tolerance) | ++ (10-99 fold higher tolerance) | +++ (100-999 fold higher tolerance) | ++ (10-99 fold higher tolerance) | ++ (10-99 fold higher tolerance) | + (1-9 fold higher tolerance) | ++ (10-99 fold higher tolerance) | +++ (100-999 fold higher tolerance) | + (1-9 fold higher tolerance)
C#CCN(C)c1c(C#N)cnn1-c1nn2c(c1Cl)CCCC2 [pyraclonil] | − | − | + (1-9 fold higher tolerance) | + (1-9 fold higher tolerance) | + (1-9 fold higher tolerance) | + (1-9 fold higher tolerance) | ++ (10-99 fold higher tolerance) | + (1-9 fold higher tolerance) | ++ (10-99 fold higher tolerance) | + (1-9 fold higher tolerance) | ++ (10-99 fold higher tolerance) | + (1-9 fold higher tolerance) | + (1-9 fold higher tolerance) | + (1-9 fold higher tolerance) |  | + (1-9 fold higher tolerance) | 
CC(C)=C1OC(=O)N(c2cc(OC3CCCC3)c(Cl)cc2F)C1=O [pentoxazone] | − | − | + (1-9 fold higher tolerance) | ++ (10-99 fold higher tolerance) | + (1-9 fold higher tolerance) | + (1-9 fold higher tolerance) | ++ (10-99 fold higher tolerance) | ++ (10-99 fold higher tolerance) | ++ (10-99 fold higher tolerance) | ++ (10-99 fold higher tolerance) | ++ (10-99 fold higher tolerance) | + (1-9 fold higher tolerance) | + (1-9 fold higher tolerance) | + (1-9 fold higher tolerance) | + (1-9 fold higher tolerance) | + (1-9 fold higher tolerance) | + (1-9 fold higher tolerance)
